Measured values as given in patent US20240254089A1, “MODULATORS OF MAS-RELATED G-PROTEIN RECEPTOR X4 AND RELATED PRODUCTS AND METHODS” (ESCIENT PHARMACEUTICALS, INC., priority 2020, published 2024).

The molecules below were run against T1, human MRGPR X4 (Homo sapiens, UniProt Q96LA9) (assay: MRGPR X4 antagonist activity, IP-One Gq HTRF assay in stably transfected HEK cells). Conditions: not given.
T1 construct: expressed in transfected cells
Format: cell-based
How it was run: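 IC50 comes from HTRF IP-1 accumulation in stably transfected HEK cells expressing human MRGPR X4. Compounds (10 uM top, 1:3 serial, 10 points) were co-incubated with 10 μM bilirubin, 20 μM deoxycholic acid or 100 μM conjugated bilirubin in LiCl-containing buffer, pH 8, for 1 h at 37 °C plus 30 min at room temperature.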

T1 sequence (Q96LA9 whole entry): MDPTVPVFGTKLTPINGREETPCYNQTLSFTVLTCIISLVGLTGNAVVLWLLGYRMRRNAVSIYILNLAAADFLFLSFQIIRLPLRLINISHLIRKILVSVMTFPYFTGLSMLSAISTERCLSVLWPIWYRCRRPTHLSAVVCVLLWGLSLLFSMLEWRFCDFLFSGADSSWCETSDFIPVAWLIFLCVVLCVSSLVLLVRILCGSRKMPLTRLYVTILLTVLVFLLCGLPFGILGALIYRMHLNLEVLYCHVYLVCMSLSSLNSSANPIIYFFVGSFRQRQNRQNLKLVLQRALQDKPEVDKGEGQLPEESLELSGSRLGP

Compared with `O=C(NCCc1nnc2ccccn12)c1nn(Cc2cccn3ccnc23)c2ccccc12` [Compound 518], `O=C(NCCc1nnc2ccccn12)c1nn(Cc2ncco2)c2ccccc12` [Compound 440] is higher in IC50: 1 to 2.5 µM for the first, over 2.5 µM for the second.

`O=C(NCCCc1ccc(Cl)c(F)c1)c1cn(Cc2ccc(Cl)cc2)c2ccccc12` [Compound 204] and `O=C(NCCc1ccc(Cl)c(F)c1)c1cn(Cc2ccc(Cl)cc2)c2ccccc12` [Compound 205] fall in the same range of IC50: 1 to 2.5 µM for the first, 1 to 2.5 µM for the second.

`O=C(NCc1ccc2nonc2c1)c1nn(Cc2ccc(Cl)cc2)c2ccccc12` [Compound 427] and `O=C(NCc1cccc2[nH]ncc12)c1nn(Cc2ccc(Cl)cc2)c2ccccc12` [Compound 387] cannot be ordered by IC50: over 2.5 µM for the first, over 2.5 µM for the second.

`O=C(NCCc1nnc2ccccn12)c1nn(Cc2ccc3c(c2)CCC3)c2ccc(F)cc12` [Compound 537] and `O=C(NCCc1nnc2ccccn12)c1nn(Cc2ccc3c(c2)CCCC3)c2ccccc12` [Compound 559] cannot be ordered by IC50: under 0.1 µM for the first, under 0.1 µM for the second.

Compared with `O=C(NCCc1nnc2ccccn12)c1nn(CC(=O)C2CCCCC2)c2ccccc12` [Compound 469], `Cc1ccc(C(=O)Cn2nc(C(=O)NCCc3nnc4ccccn34)c3ccccc32)c(C)c1` [Compound 483] is lower in IC50: 1 to 2.5 µM for the first, 0.501 to 1 µM for the second.

`O=C(O)c1nn(Cc2ccc(C3CCCCC3)cc2)c2ccccc12` [Compound 332] and `O=C(O)c1nn(Cc2ccc(OC(F)F)cc2)c2ccccc12` [Compound 325] cannot be ordered by IC50: over 2.5 µM for the first, over 2.5 µM for the second.

First: COc1cccc(Cn2cc(C(=O)NCCc3cccnc3)c3ccccc32)c1 [Compound 211]
Second: Cc1ccc(Cn2cc(C(=O)NCCc3cccnc3)c3ccccc32)cc1 [Compound 160]
The IC50 of the first is higher: 1 to 2.5 µM for the first, 0.1 to 0.5 µM for the second. The second is the more potent here.

First: Cc1ccc(CCNC(=O)c2nn(Cc3ccc(OC(F)F)cc3)c3ccccc23)cc1 [Compound 120]
Second: O=C(NCCc1c[nH]c2ccccc12)c1nn(Cc2ccc(OC(F)F)cc2)c2ccccc12 [Compound 71]
The IC50 of the first is higher: 1 to 2.5 µM for the first, 0.501 to 1 µM for the second.

First: Cc1cc(C)nc(CCNC(=O)c2nn(Cc3ccc(Cl)cc3)c3ccccc23)n1 [Compound 119]
Second: Cc1nnc(CCNC(=O)c2nn(Cc3ccc(Cl)cc3)c3ccccc23)n1C [Compound 80]
The IC50 of the first is higher: 1 to 2.5 µM for the first, 0.501 to 1 µM for the second. The second is the more potent here.

Compared with `O=C(Nc1ccc2cccnc2c1)c1nn(Cc2ccc(Cl)cc2)c2ccccc12` [Compound 111], `O=C(NCc1cnn2ccccc12)c1nn(Cc2ccc(Cl)cc2)c2ccccc12` [Compound 388] is higher in IC50: 1 to 2.5 µM for the first, over 2.5 µM for the second. The first is the more potent here.

`Cc1ccc(Cn2nc(C(=O)NCCc3nc(C)cs3)c3ccccc32)cc1` [Compound 38] and `Cc1ccc(Cn2nc(C(=O)NCCc3nc(C)c(C)s3)c3ccccc32)cc1` [Compound 53] fall in the same range of IC50: 0.1 to 0.5 µM for the first, 0.1 to 0.5 µM for the second.

Compared with `O=C(NCCc1ccc(C(F)(F)F)cc1)c1cn(Cc2ccc(Cl)cc2)c2ccccc12` [Compound 208], `Cc1ccc(CCNC(=O)c2cn(Cc3ccc(Cl)cc3)c3ccccc23)cn1` [Compound 151] is lower in IC50: 1 to 2.5 µM for the first, under 0.1 µM for the second.

`Cc1ncccc1CCNC(=O)c1nn(Cc2ccc(C(F)(F)F)cc2)c2ccccc12` [Compound 39] and `Cc1ccc(Cn2nc(C(=O)NCCc3ccccn3)c3ccccc32)cc1` [Compound 63] fall in the same range of IC50: 0.1 to 0.5 µM for the first, 0.1 to 0.5 µM for the second.

`N#Cc1ccc2c(C(=O)NCCc3nnc4ccccn34)nn(Cc3ccc(Cl)cc3)c2c1` [Compound 542] and `O=C(NCCc1nnc2ccccn12)c1nn(Cc2ccc(Cl)cc2)c2cc(Cl)ccc12` [Compound 562] cannot be ordered by IC50: under 0.1 µM for the first, under 0.1 µM for the second.

Compared with `O=C(NCCc1nnc2ccccn12)c1nn(Cc2ccc(Cl)cc2)c2ccc(Cl)cc12` [Compound 12], `O=C(NCCc1nnc2ccccn12)c1nn(Cc2ccc(Cl)cc2)c2cccc(Cl)c12` [Compound 547] is higher in IC50: under 0.1 µM for the first, 0.501 to 1 µM for the second. The first is the more potent here.

Compared with `O=C(NCCc1ccccn1)c1cn(Cc2ccc(OC(F)F)cc2)c2ccccc12` [Compound 167], `N#Cc1ccc(Cn2cc(C(=O)NCCc3ccccn3)c3ccccc32)cc1` [Compound 184] is higher in IC50: 0.1 to 0.5 µM for the first, 0.501 to 1 µM for the second. The first is the more potent here.

First: Cc1cc(Cl)ccc1Cn1nc(C(=O)NCCc2cccnc2)c2ccccc21 [Compound 37]
Second: Cc1cccc(Cn2nc(C(=O)NCCc3cccnc3)c3ccccc32)c1 [Compound 115]
The IC50 of the first is lower: 0.1 to 0.5 µM for the first, 1 to 2.5 µM for the second.

`O=C(NCCc1nnc2ccccn12)c1nn(Cc2ccc(OC(F)F)cc2)c2ccccc12` [Compound 463] and `O=C(NCCc1nnc2ccccn12)c1nn(Cc2ccc3cc[nH]c3c2)c2ccccc12` [Compound 556] cannot be ordered by IC50: under 0.1 µM for the first, under 0.1 µM for the second.

First: O=C(NCCc1nnc2n1CCCCC2)c1nn(Cc2ccc(-c3ccccc3)cc2)c2ccccc12 [Compound 106]
Second: O=C(NCCc1nnc2n1CCCCC2)c1nn(Cc2ccc(Cl)cc2)c2ccc(Cl)cc12 [Compound 8]
The IC50 of the first is higher: 1 to 2.5 µM for the first, under 0.1 µM for the second. The second is the more potent here.

First: CC(C)c1ccc(Cn2nc(C(=O)NCCc3nc4c(s3)CCCC4)c3ccccc32)cc1 [Compound 108]
Second: Cc1ccc(Cn2cc(C(=O)NCCc3nc4c(s3)CCCC4)c3ccccc32)cc1 [Compound 165]
The IC50 of the first is higher: 1 to 2.5 µM for the first, 0.1 to 0.5 µM for the second. The second is the more potent here.

`O=C(NCCc1nnc2ccccn12)c1nn(Cc2ccc(Cl)cc2)c2c(Br)cccc12` [Compound 541] and `O=C(NCCc1nnc2ccccn12)c1nn(Cc2ccc(Cl)cc2F)c2ccccc12` [Compound 527] cannot be ordered by IC50: under 0.1 µM for the first, under 0.1 µM for the second.

Compared with `CN(C)c1cccc(Cn2nc(C(=O)NCCc3nnc4ccccn34)c3ccccc32)n1` [Compound 492], `O=C(NCCc1nnc2ccccn12)c1nn(Cc2cccc3ccccc23)c2ccccc12` [Compound 474] is lower in IC50: over 2.5 µM for the first, 0.1 to 0.5 µM for the second. The second is the more potent here.

`N=C(N)NCCCCNC(=O)c1nn(Cc2ccc(Cl)cc2)c2ccccc12` [Compound 346] and `Cc1noc(C)c1CCCNC(=O)c1nn(Cc2ccc(Cl)cc2)c2ccccc12` [Compound 383] fall in the same range of IC50: 1 to 2.5 µM for the first, 1 to 2.5 µM for the second.

`O=C(O)c1nn(Cc2ccc(Cl)cc2)c2cc(F)ccc12` [Compound 326] and `O=C(CNC(=O)c1nn(Cc2ccc(Cl)cc2)c2ccccc12)NCC(F)(F)F` [Compound 347] cannot be ordered by IC50: over 2.5 µM for the first, over 2.5 µM for the second.

First: COc1ccc(Cn2nc(C(=O)NCCc3nnc4ccccn34)c3ccccc32)c2ccccc12 [Compound 473]
Second: O=C(NCCc1coc2ccccc12)c1nn(Cc2ccc(Cl)cc2)c2ccccc12 [Compound 356]
The IC50 of the first is lower: 0.1 to 0.5 µM for the first, 0.501 to 1 µM for the second. The first is the more potent here.

Compared with `COCCn1cnnc1CCNC(=O)c1nn(Cc2ccc(Cl)cc2)c2ccccc12` [Compound 92], `Cc1ccc(Cn2nc(C(=O)NCCc3ncnn3C)c3ccccc32)cc1` [Compound 113] is higher in IC50: 0.501 to 1 µM for the first, 1 to 2.5 µM for the second. The first is the more potent here.

`Cc1ccc(CCNC(=O)c2cn(Cc3cccc(F)c3)c3ccccc23)cn1` [Compound 202] and `Cc1ncccc1CCNC(=O)c1cn(Cc2cccc(F)c2)c2ccccc12` [Compound 212] fall in the same range of IC50: 1 to 2.5 µM for the first, 1 to 2.5 µM for the second.

First: O=C(NCCc1cncnc1)c1cn(Cc2ccc(Cl)cc2)c2ccccc12 [Compound 215]
Second: O=C(NCCn1cc(-c2cncnc2)nn1)c1nn(Cc2ccc(Cl)cc2)c2ccccc12 [Compound 145]
The IC50 of the first is higher: 1 to 2.5 µM for the first, 0.501 to 1 µM for the second. The second is the more potent here.

Compared with `O=C(NCCc1nnc2ccccn12)c1nn(Cc2ccc(Cl)c(Cl)c2)c2ccc(F)cc12` [Compound 571], `Cc1ccc(Cn2nc(C(=O)NCCc3noc(C4CC4)n3)c3ccccc32)cc1` [Compound 83] is higher in IC50: under 0.1 µM for the first, 0.501 to 1 µM for the second. The first is the more potent here.

Compared with `CCc1nc(CCNC(=O)c2nn(Cc3ccc(Cl)cc3)c3ccccc23)sc1C` [Compound 79], `Cc1ccc(Cn2nc(C(=O)NCCc3ccnn3C)c3ccccc32)cc1` [Compound 124] is higher in IC50: 0.501 to 1 µM for the first, over 2.5 µM for the second. The first is the more potent here.

First: Cc1ccc(Cn2cc(C(=O)NCCc3c[nH]c4ccccc34)c3ccccc32)cc1 [Compound 169]
Second: Cc1ccc(Cn2nc(C(=O)NCCc3nc4ccccc4o3)c3ccccc32)cc1 [Compound 103]
The IC50 of the first is lower: 0.1 to 0.5 µM for the first, 1 to 2.5 µM for the second.

Same assay, conditions: versus 20 μM deoxycholic acid agonist; HEK cells expressing human MRGPR X4; read-out: MRGPRX4 Antagonist Activity

Compared with `Cc1ccc(CS(=O)(=O)NC(=O)c2nn(Cc3ccc(Cl)cc3)c3ccccc23)cc1` [Compound 264], `Cc1cccc(S(=O)(=O)NC(=O)c2nn(Cc3ccc(Cl)cc3)c3ccccc23)n1` [Compound 305] is higher in IC50: 0.501 to 1 µM for the first, over 2.5 µM for the second. The first is the more potent here.

First: Cc1cc(S(=O)(=O)NC(=O)c2nn(Cc3ccc(OC(F)F)cc3)c3ccccc23)ccc1F [Compound 290]
Second: O=C(NS(=O)(=O)c1cccc(F)c1)c1nn(Cc2ccc(OC(F)F)cc2)c2ccccc12 [Compound 267]
The IC50 of the first is higher: 1 to 2.5 µM for the first, 0.501 to 1 µM for the second.

Compared with `O=C(NS(=O)(=O)c1cccc(C(F)(F)F)c1)c1nn(Cc2ccc(OC(F)F)cc2)c2ccccc12` [Compound 265], `O=C(NS(=O)(=O)c1ccc(OC(F)(F)F)cc1)c1nn(Cc2ccc(OC(F)F)cc2)c2ccccc12` [Compound 296] is higher in IC50: 0.501 to 1 µM for the first, over 2.5 µM for the second. The first is the more potent here.

Compared with `COc1ccc(C)c(S(=O)(=O)NC(=O)c2nn(Cc3cccc(F)c3)c3ccccc23)c1` [Compound 257], `Cc1cccc(S(=O)(=O)NC(=O)c2nn(Cc3ccc(OC(F)F)cc3)c3ccccc23)c1F` [Compound 278] is lower in IC50: over 2.5 µM for the first, 1 to 2.5 µM for the second. The second is the more potent here.

`Cc1ccccc1S(=O)(=O)NC(=O)c1cn(Cc2ccc(OC(F)F)cc2)c2ccccc12` [Compound 312, 1-(4-(difluoromethoxy)benzyl)-N-(o-tolylsulfonyl)-1H-indole-3-carboxamide] and `Cc1ccccc1S(=O)(=O)NC(=O)c1nn(Cc2ccc(C(F)(F)F)cc2Cl)c2ccccc12` [Compound 284] fall in the same range of IC50: 1 to 2.5 µM for the first, 1 to 2.5 µM for the second.

Compared with `O=C(CS(=O)(=O)c1cn(Cc2ccc(Cl)cc2)c2ccccc12)Nc1cccc(F)c1` [Compound 240], `O=C(CS(=O)(=O)c1cn(Cc2ccc(Cl)cc2)c2ccccc12)Nc1ccc(F)cc1` [Compound 245] is higher in IC50: 0.1 to 0.5 µM for the first, 0.501 to 1 µM for the second. The first is the more potent here.

First: O=S(=O)(NCCc1ccc(Cl)c(F)c1)c1cn(Cc2ccc(Cl)cc2)c2ccccc12 [Compound 314]
Second: O=C(CS(=O)(=O)c1cn(Cc2ccc(Cl)cc2)c2ccccc12)Nc1cccnc1 [Compound 239]
The IC50 of the first is higher: 1 to 2.5 µM for the first, 0.1 to 0.5 µM for the second.

Compared with `O=C(NCCS(=O)(=O)c1ccccc1)c1nn(Cc2ccc(Cl)cc2)c2ccccc12` [Compound 407], `CNCc1cn(CCNC(=O)c2nn(Cc3ccc(Cl)cc3)c3ccccc23)nn1` [Compound 142] is higher in IC50: 1 to 2.5 µM for the first, over 2.5 µM for the second.

Molecule `Cc1cc(S(=O)(=O)NC(=O)c2nn(Cc3ccc(C(F)(F)F)cc3Cl)c3ccccc23)ccc1C#N` [Compound 263] has an IC50 of 0.501 to 1 µM.
